Reference: paper PMC12446468, “Anti-inflammatory and cytotoxic assessment of flavonoids isolated from Viola odorata flowers with computer-guided docking study” (Scientific Reports, 2025)
In brackets after ≈: the same amount, converted by molar mass.

What was measured:
[1] = test system: human colorectal carcinoma cells (HTC-116); assay: MTT cytotoxicity assay, HTC-116; format: cell-based; conditions: Homo sapiens, HTC-116, 48 h, read-out: IC50
Method: (§1) The assessment of cytotoxicity for the methanolic extract and isolated flavonoids was performed under controlled and sterile conditions within a Class II A2 Laminar flow biosafety cabinet. The carcinoma cell lines used in this study was obtained from Nawah Scientific Inc. (Cairo, Egypt). The cells were cultured in Dulbecco’s Modified Eagle’s Medium, enriched with 10% heat-inactivated fetal bovine serum, 100 U/ml penicillin, and 100 μg/ml streptomycin sulfate, maintained at […] in humidified incubators with 5% CO2. Upon reaching approximately 80% confluence, the cells were subcultured using a trypsin–EDTA solution. Harvesting occurred during the logarithmic growth phase. The methanolic extract and isolated flavonoids were dissolved in DMSO and stored at − 20 °C. For each experimental trial, the stock solutions were mixed with the culture medium to obtain the required final concentrations.
(§2) The effectiveness of the extract was compared to that of the reference drug, Doxorubicin. The percentage of cell viability was calculated by taking the ratio of the absorbance of the plant extract to that of the control, multiplied by 100. Furthermore, the IC50 value of the plant extract was determined using Sigma Plot software version 11 (Spw.exe) (https://sigmaplot.software.informer.com/11.0/).

[2] = MTT cytotoxicity assay, HTC-116; format: cell-based, human; conditions: human, HTC-116 cells (human colorectal carcinoma), 48 h
Method: as §1, §2

[3] = test system: hepatocellular carcinoma (HepG2); assay: MTT cytotoxicity assay, HepG2; format: cell-based, human; conditions: Homo sapiens, HepG2, 48 h, read-out: IC50
Method: as §1, §2

[4] = MTT cytotoxicity assay, HepG2; format: cell-based, human; conditions: human, HepG2 cells (hepatocellular carcinoma), 48 h
Method: as §1, §2

[5] = test system: human colonic epithelial cells (Caco-2); assay: MTT cytotoxicity assay, Caco-2; format: cell-based; conditions: Homo sapiens, Caco-2, 48 h, read-out: IC50
Method: as §1, §2

[6] = MTT cytotoxicity assay, Caco-2; format: cell-based, human; conditions: human, Caco-2 cells (human colonic epithelial cells), 48 h
Method: as §1, §2

COc1cccc2c1C(=O)c1c(O)c3c(c(O)c1C2=O)C[C@@](O)(C(=O)CO)C[C@@H]3O[C@H]1C[C@H](N)[C@H](O)[C@H](C)O1 [Doxorubicin, reference compound]
IC50 [1]: 25.7 µg/mL (≈ 47.3 µM)
cytotoxicity at 48 h, 6.25 µg/ml ([2]; HTC-116, 6.25 ug/ml): 31%
viability at 48 h, 6.25 µg/ml ([2]; HTC-116, 6.25 ug/ml, read-out: % Cell viability): 69%
cytotoxicity at 48 h, 12.5 µg/ml ([2]; HTC-116, 12.5 ug/ml): 43.1%
viability at 48 h, 12.5 µg/ml ([2]; HTC-116, 12.5 ug/ml, read-out: % Cell viability): 56.9%
cytotoxicity at 48 h, 25 µg/ml ([2]; HTC-116, 25 ug/ml): 53.8%
viability at 48 h, 25 µg/ml ([2]; HTC-116, 25 ug/ml, read-out: % Cell viability): 46.2%
cytotoxicity at 48 h, 50 µg/ml ([2]; HTC-116, 50 ug/ml): 70%
viability at 48 h, 50 µg/ml ([2]; HTC-116, 50 ug/ml, read-out: % Cell viability): 30%
cytotoxicity at 48 h, 100 µg/ml ([2]; HTC-116, 100 ug/ml): 91.2%
viability at 48 h, 100 µg/ml ([2]; HTC-116, 100 ug/ml, read-out: % Cell viability): 8.77%
IC50 [3]: 23.6 µg/mL (≈ 43.3 µM)
cytotoxicity at 48 h, 6.25 µg/ml ([4]; HepG2, 6.25 ug/ml): 31.8%
viability at 48 h, 6.25 µg/ml ([4]; HepG2, 6.25 ug/ml, read-out: % Cell viability): 68.2%
cytotoxicity at 48 h, 12.5 µg/ml ([4]; HepG2, 12.5 ug/ml): 37.7%
viability at 48 h, 12.5 µg/ml ([4]; HepG2, 12.5 ug/ml, read-out: % Cell viability): 62.3%
cytotoxicity at 48 h, 25 µg/ml ([4]; HepG2, 25 ug/ml): 60.1%
viability at 48 h, 25 µg/ml ([4]; HepG2, 25 ug/ml, read-out: % Cell viability): 39.9%
cytotoxicity at 48 h, 50 µg/ml ([4]; HepG2, 50 ug/ml): 76%
viability at 48 h, 50 µg/ml ([4]; HepG2, 50 ug/ml, read-out: % Cell viability): 24%
cytotoxicity at 48 h, 100 µg/ml ([4]; HepG2, 100 ug/ml): 92%
viability at 48 h, 100 µg/ml ([4]; HepG2, 100 ug/ml, read-out: % Cell viability): 7.95%
IC50 [5]: 27.1 µg/mL (≈ 49.9 µM)
cytotoxicity at 48 h, 6.25 µg/ml ([6]; Caco-2, 6.25 ug/ml): 28.1%
viability at 48 h, 6.25 µg/ml ([6]; Caco-2, 6.25 ug/ml, read-out: % Cell viability): 71.9%
cytotoxicity at 48 h, 12.5 µg/ml ([6]; Caco-2, 12.5 ug/ml): 41.6%
viability at 48 h, 12.5 µg/ml ([6]; Caco-2, 12.5 ug/ml, read-out: % Cell viability): 58.4%
cytotoxicity at 48 h, 25 µg/ml ([6]; Caco-2, 25 ug/ml): 53.9%
viability at 48 h, 25 µg/ml ([6]; Caco-2, 25 ug/ml, read-out: % Cell viability): 46.1%
cytotoxicity at 48 h, 50 µg/ml ([6]; Caco-2, 50 ug/ml): 71.2%
viability at 48 h, 50 µg/ml ([6]; Caco-2, 50 ug/ml, read-out: % Cell viability): 28.8%
cytotoxicity at 48 h, 100 µg/ml ([6]; Caco-2, 100 ug/ml): 92.1%
viability at 48 h, 100 µg/ml ([6]; Caco-2, 100 ug/ml, read-out: % Cell viability): 7.87%
